The results in this text go back to PMC3663048 (Journal of medicinal chemistry, 2011).

Where a chain is given by its changes, count along the chain named.

One assay has as its target T1, Nek2 (Homo sapiens, UniProt P51955).
T1 sequence (P51955 1-445): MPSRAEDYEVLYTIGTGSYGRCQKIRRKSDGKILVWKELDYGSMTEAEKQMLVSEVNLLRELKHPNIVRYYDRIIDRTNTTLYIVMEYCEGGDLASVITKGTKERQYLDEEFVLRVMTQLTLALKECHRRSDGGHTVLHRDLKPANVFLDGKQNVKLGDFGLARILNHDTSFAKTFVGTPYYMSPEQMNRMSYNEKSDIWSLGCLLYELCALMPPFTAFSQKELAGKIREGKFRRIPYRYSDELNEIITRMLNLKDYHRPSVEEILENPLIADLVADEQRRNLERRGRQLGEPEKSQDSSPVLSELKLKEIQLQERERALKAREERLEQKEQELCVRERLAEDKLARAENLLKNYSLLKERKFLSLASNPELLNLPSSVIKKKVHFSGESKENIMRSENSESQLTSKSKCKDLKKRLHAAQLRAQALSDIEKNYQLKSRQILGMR
The assay is described as follows: In vitro kinase assay with WT Nek2. To be noted: for Percent inhibition of Nek2 kinase activity: 5 μM, 30 min pre-incubation; for Potency against WT Nek2 (dose-response): WT Nek2, in vitro kinase assay; for inhibition at 5 µM: read-out: Percent inhibition of Nek2 kinase activity.

The next assay has as its target T2, C22V Nek2 (Homo sapiens, UniProt P51955, C22V).
T2 sequence (P51955 1-445 C22V): T1 sequence (P51955 1-445) with C22V
In words: In vitro kinase assay with C22V Nek2. Format: biochemical. The note with it: C22V mutant.

Assay [1] deals with T3, WT Nek2 kinase domain (aa 1-271) (Homo sapiens, UniProt P51955).
T3 sequence (P51955 1-271): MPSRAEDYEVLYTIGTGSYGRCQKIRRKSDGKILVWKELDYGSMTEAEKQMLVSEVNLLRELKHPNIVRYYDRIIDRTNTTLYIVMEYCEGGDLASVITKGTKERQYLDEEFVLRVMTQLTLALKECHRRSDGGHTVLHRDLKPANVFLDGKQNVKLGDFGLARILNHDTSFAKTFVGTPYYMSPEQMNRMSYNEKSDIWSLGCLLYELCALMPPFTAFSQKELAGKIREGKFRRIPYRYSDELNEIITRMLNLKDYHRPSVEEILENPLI
In words: Mass spectrometry-based covalent binding assay, WT Nek2 kinase domain. To be noted: ten-fold molar excess of compound, physiological pH.

The target in another assay is T4, endogenous Nek2 (Homo sapiens, UniProt P51955).
T4 sequence (P51955 1-445): T1 sequence (P51955 1-445)
The assay is described as follows: Immunoprecipitation kinase assay of endogenous Nek2 from treated A549 cells. Format: cell-based. The note with it: A549, read-out: Inhibition of cellular Nek2.

Assay [2] concerns monastrol-arrested A549 cells. In words: Mitotic exit of monastrol-arrested A549 cells. It counts as cell-based, human. To be noted: 45 min; for Phospho-Ser10 histone H3 staining (mitotic marker): 5 μM.

As for `C=CC(=O)Nc1ccc2c(c1)/C(=C/c1ccc[nH]1)C(=O)N2` [compound 7, (Z)-N-(3-((1H-Pyrrol-2-yl)methylene)-2-oxoindolin-5-yl)acrylamide], on Nek2, the “Percent inhibition of Nek2 kinase activity” value is reported as “ineffective”.
Usually inhibition stands for how much of the control response was suppressed. As to `C#CC(=O)Nc1ccc2c(c1)/C(=C/c1ccc[nH]1)C(=O)N2` [compound 8, (Z)-N-(3-((1H-Pyrrol-2-yl)methylene)-2-oxoindolin-5-yl)propiolamide], on C22V Nek2, the “Potency against C22V Nek2 compared to WT” value is recorded as “significantly less potent”. Also, on Nek2, the “Percent inhibition of Nek2 kinase activity” value is reported as “nearly complete inhibition”, the “Potency against WT Nek2 (dose-response)” value is “submicromolar” and the inhibition at 5 µM was above 80%. Besides, the “Alkylation of WT Nek2 kinase domain (ESI-MS)” value (“Alkylation” below) in assay [1] was “alkylated WT Nek2 at a single site”.
Broadly, the IC50 is the midpoint of a concentration-inhibition curve. At Nek2, `CC#CC(=O)Nc1ccc2c(c1)/C(=C/c1[nH]c(CC)nc1C)C(=O)N2` [compound 18, (Z)-N-(3-((2-Ethyl-4-methyl-1H-imidazol-5-yl)methylene)-2-oxoindolin-5-yl)but-2-ynamide] had an IC50 of around 20 µM. Besides, the inhibition at 5 µM at endogenous Nek2 lay within 10 to 25%.
For the molecule `O=C1NC(=NCc2cccs2)S/C1=C\c1ccc2ncccc2c1` [compound 19, reference compound], in assay [2], the “Phospho-Ser10 histone H3 staining (mitotic marker)” value is given as “devoid of this mitotic marker”.
With `CCc1nc(C)c(/C=C2\C(=O)Nc3ccc(C(=O)CCl)cc32)[nH]1` [compound 11, (Z)-5-(2-Chloroacetyl)-3-((2-ethyl-4-methyl-1H-imidazol-5-yl)methylene)indolin-2-one], in assay [1], the “Alkylation” value is “reacted stoichiometrically”.
On to `C#CC(=O)Nc1ccc2c(c1)/C(=C/c1[nH]cnc1C)C(=O)N2` [compound 15, (Z)-N-(3-((4-Methyl-1H-imidazol-5-yl)methylene)-2-oxoindolin-5-yl)propiolamide], for which the “Phospho-Ser10 histone H3 staining (mitotic marker)” value in assay [2] is “devoid of this mitotic marker”. In addition, the “% mitotic exit (5 μM)” value in assay [2] (immunofluorescence) came out at 80%.
For the molecule `O=C1Nc2ccc(C(=O)CCl)cc2/C1=C/c1ccc[nH]1` [compound 2, (Z)-3-((1H-Pyrrol-2-yl)methylene)-5-(2-chloroacetyl)indolin-2-one], at C22V Nek2, the “Potency against C22V Nek2 compared to WT” value is recorded as “significantly less potent”. At Nek2, the “Potency against WT Nek2 (dose-response)” value is reported as “submicromolar” and the inhibition at 5 µM is above 80%. Further, the “Alkylation” value in assay [1] was “alkylated WT Nek2 at a single site”.
